Data taken from US9801873B2, “Methods for treating humans having brain cancer” (priority 2008, dated 2017).
Like-named read-outs stand apart in the source and are kept apart here.

Key:
A2780 ovarian tumors = conditions: for activity in A2780 ovarian tumor model: 3 weekly intra-peritoneal administrations; for tumor growth delay (TGD): 3 weekly intravenous injections
Experimental: Anti-tumor efficacy was evaluated based on tumor growth delay (TGD) in mice and response rate in mice and humans.
Animals were weighed and monitored twice weekly, and tumor volumes were measured until an endpoint was met (2000 mm^3 or 60 days). Anti-tumor efficacy was evaluated based on tumor growth delay and response rate or partial or complete regression (PR or CR). In a PR, the tumor volume was 50% or less of its Day 1 volume for three consecutive measurements, and equal to or greater than 14 mm^3 for one or more of these three measurements. In a CR, the tumor volume was less than 14 mm^3 for three consecutive measurements. An animal with a CR response at termination was additionally classified as tumor-free survivior (TFS). A Student's T-test was performed to calculate statistical significance (p<0.05).

[1] = Phase 1 trial: plasma pharmacokinetics by LC-MS/MS and population PK model (SN-38 exposure and half-life); conditions: plasma analyte after administration of Compound I
Experimental: Tumor responses were evaluated according to RECIST (Response Evaluation Criteria in Solid Tumors) criteria.

[2] = cited from earlier work

Compound: N.N.[Cl][Pt][Cl] [cisplatin]
- activity in A2780 ovarian tumor model (A2780 ovarian tumors): inactive

Compound: N.N.O=C([O-])C1(C(=O)[O-])CCC1.[Pt+2] [carboplatin]
- activity in A2780 ovarian tumor model (A2780 ovarian tumors): inactive

Compound: CCc1c2c(nc3ccc(O)cc13)-c1cc3c(c(=O)n1C2)COC(=O)[C@]3(O)CC [SN-38, 7-ethyl-10-hydroxy camptothecin]
- T1/2 λz, In Responding Patients (range) [1]: 14.4 to 98.3 days
- T1/2 λz, Population Estimate in Responding Patients [1]: 49.1 days

Compound: CCc1c2c(nc3ccc(OC(=O)N4CCC(N5CCCCC5)CC4)cc13)-c1cc3c(c(=O)n1C2)COC(=O)[C@]3(O)CC [irinotecan]
- tumor growth delay (TGD) (A2780 ovarian tumors; 50 mg/kg): 12 days
- tumor growth delay (TGD) (A2780 ovarian tumors; 100 mg/kg): 15 days
- tumor growth delay (TGD) (A2780 ovarian tumors; 150 mg/kg): 16 days
- tolerability in mice (A2780 ovarian tumors; 3 weekly intravenous doses of 50, 100, or 150 mg/kg): acute effects immediately after dosing (tremors, hypoactivity, ataxia, pilo-erection, increased stool production)
- partial responses (PR) (A2780 ovarian tumors; highest dose (150 mg/kg), n=10): one partial response (PR)
- SN-38 plasma levels ([2]; higher doses (2.8, 4.6 mg/m^2 per day), dosing period of 63 days): 2 to 4 ng/mL
- SN-38 plasma levels ([2]; lowest dose (1.4 mg/m^2 per day continuous iv infusion), up to 63 days): around 1 ng/ml
